Experimental data: patent publication US4933497A, “Preparation of hydroxybenzaldehydes by hydrocarbonylation of halophenols” (Rhone-Poulenc Chimie, priority 1988, dated 1990)

Columns and labels:
[1] = in water; cited from earlier work
[2] = water
[3] = in water (generally at 25° C.); cited from earlier work

SMILES	pKa of the phosphine [1]	pKa of the halophenol [2]	other results
c1ccc(P(c2ccccc2)c2ccccc2)cc1 [triphenylphosphine, reference compound]	2.74	–	–
Oc1ccccc1Br [2-bromophenol]	–	8.55	–
C1CCC(P(C2CCCCC2)C2CCCCC2)CC1 [tricyclohexylphosphine]	9.7	–	–
c1ccc(CP(Cc2ccccc2)Cc2ccccc2)cc1 [tribenzylphosphine]	6.0	–	–
CCOc1cc(Br)ccc1O [4-bromo-2-ethoxyphenol]	–	~9.5	–
CCP(CC)CC [triethylphosphine]	8.69	–	–
COc1cc(Br)ccc1O [4-bromo-2-methoxyphenol]	–	9.5	–
CN(C)c1ccncc1 [4-dimethylaminopyridine]	–	–	pKa of the conjugate acid of the amine [3]: 9.55
